Entries after “also recorded” stand apart in the source; their conditions may differ.
Assay: Safety and tolerability (adverse events, laboratory tests, ECG), multiple-ascending-dose phase 1 study
Assay type: in vivo
Excerpt: Subjects were monitored closely with serial physical examinations, blood evaluations, and 12-lead ECGs. Subjects underwent safety laboratory testing, including measurement of blood cell counts (white blood cell [WBC] with differential, hemoglobin, and platelets), serum chemistry (sodium, potassium, chloride, calcium, bicarbonate, glucose, creatinine, blood urea nitrogen [BUN], creatine kinase [CK], aspartate aminotransferase [AST], alanine aminotransferase [ALT], alkaline phosphatase [ALP], total bilirubin, protein, albumin, amylase, and lipase) and urinalysis (protein, blood, and glucose). Study halting criteria had been established and were reviewed by an independent safety monitor (ISM) and the Safety Monitoring Committee (SMC) prior to proceeding with dosing within a cohort or to the next cohort.
The safety population included all subjects who received at least one dose of the study drug. The safety and tolerability of CRS3123 were evaluated by the sequential review of reported adverse events (AEs), changes from baseline in physical examination findings, vital sign measurements, safety laboratory tests (hematology, clinical chemistry, and urinalysis), and key 12-lead ECG findings. All safety assessments were summarized with descriptive statistics or frequency counts.
The period of observation for AE reporting began on day 1 at the time of study drug administration and continued through the final visit.
All AEs were coded to system organ class (SOC) and preferred term (PT) using the Medical Dictionary for Regulatory Activities (MedDRA), version 17.0 (https://www.meddra.org/). A treatment-emergent AE (TEAE) was defined as any AE that occurred during the study observation period (i.e., from day 1 at the time of study drug administration through the final visit). An AE with a partial onset date was classified as a TEAE if the reported partial onset date could not definitely be identified as before the date of study drug administration. Any AE with a missing onset date or missing time on day of study drug administration was classified as a TEAE.
To count the overall number of subjects who experienced each TEAE and calculation of an occurrence rate, a subject experiencing multiple occurrences of an AE was counted only once for that PT. Similarly, if a subject experienced multiple TEAEs within the same SOC, that subject was counted once to calculate an occurrence rate for the SOC. To count the number of subjects who experienced each TEAE by severity classification (mild, moderate, severe, and life-threatening) and calculate an occurrence rate, a subject experiencing multiple occurrences of an AE of the same severity was counted once in that particular severity classification for that PT. If a subject experienced multiple occurrences of an AE of differing severities, only the most severe occurrence within each PT was counted.

[1] = 200, 400, 600 mg orally twice daily for 10 days
[2] = all TEAEs, Cohort A, 200 mg Q12h (n = 8)

For O=c1cc(NCCCN[C@@H]2CCOc3c(Br)cc(Br)cc32)[nH]c2ccsc12 [CRS3123], the QTcF interval (12-lead ECG, all doses) was “no QTcF interval changes; also recorded: no prolongation of the QTcF interval”, the “deaths, serious adverse events, severe TEAEs” value [1] was “no serious adverse events (SAEs) or severe treatment-emergent adverse events (TEAEs) reported” and the “overall safety and tolerability” value [1] was “generally safe and well tolerated”. For the same compound, the “proportion of subjects reporting at least one treatment-related AE” value (active groups (placebo 33.3%)) was 12.5 % subjects, the “No. (%) of subjects: Alanine aminotransferase increased” value (all TEAEs, All active (n = 24)) was 3 (12.5) and the “No. (%) of subjects: Amylase increased” value (all TEAEs, All active (n = 24)) was 3 (12.5). For the same compound, the “No. (%) of subjects: Anxiety” value (all TEAEs, All active (n = 24)) was 1 (4.2), the “No. (%) of subjects: Arthropod bite” value (all TEAEs, All active (n = 24)) was 1 (4.2) and the “No. (%) of subjects: Aspartate aminotransferase increased” value (all TEAEs, All active (n = 24)) was 2 (8.3). The “No. (%) of subjects: Blood bilirubin increased” value (all TEAEs, All active (n = 24)) was 1 (4.2), the “No. (%) of subjects: Blood calcium increased” value (all TEAEs, All active (n = 24)) was 1 (4.2) and the “No. (%) of subjects: Blood potassium increased” value (all TEAEs, All active (n = 24)) was 1 (4.2). The “No. (%) of subjects: Blood pressure, diastolic, decreased” value (all TEAEs, All active (n = 24)) was 1 (4.2), the “No. (%) of subjects: Blood pressure, diastolic, increased” value (all TEAEs, All active (n = 24)) was 1 (4.2) and the “No. (%) of subjects: Blood pressure, systolic, decreased” value (all TEAEs, All active (n = 24)) was 0 (0.0). For the same compound, the “No. (%) of subjects: Blood pressure, systolic, increased” value (all TEAEs, All active (n = 24)) was 1 (4.2), the “No. (%) of subjects: Diarrhea” value (all TEAEs, All active (n = 24)) was 2 (8.3) and the “No. (%) of subjects: Dry skin” value (all TEAEs, All active (n = 24)) was 1 (4.2). The “No. (%) of subjects: Dysgeusia” value (all TEAEs, All active (n = 24)) was 1 (4.2), the “No. (%) of subjects: Ear and labyrinth disorders (system organ class)” value (all TEAEs, All active (n = 24)) was 1 (4.2) and the “No. (%) of subjects: Ear discomfort” value (all TEAEs, All active (n = 24)) was 1 (4.2). For the same compound, the “No. (%) of subjects: Erythema” value (all TEAEs, All active (n = 24)) was 1 (4.2), the “No. (%) of subjects: Gastrointestinal disorders (system organ class)” value (all TEAEs, All active (n = 24)) was 2 (8.3) and the “No. (%) of subjects: General disorders and administration site conditions (system organ class)” value (all TEAEs, All active (n = 24)) was 1 (4.2). The “No. (%) of subjects: Headache” value (all TEAEs, All active (n = 24)) was 2 (8.3), the “No. (%) of subjects: Hemoglobin decreased” value (all TEAEs, All active (n = 24)) was 4 (16.7) and the “No. (%) of subjects: Infections and infestations (system organ class)” value (all TEAEs, All active (n = 24)) was 1 (4.2). The “No. (%) of subjects: Infusion site thrombosis” value (all TEAEs, All active (n = 24)) was 1 (4.2), the “No. (%) of subjects: Injury, poisoning, and procedural complications (system organ class)” value (all TEAEs, All active (n = 24)) was 1 (4.2) and the “No. (%) of subjects: Investigations (system organ class)” value (all TEAEs, All active (n = 24)) was 15 (62.5). The “No. (%) of subjects: Lipase increased” value (all TEAEs, All active (n = 24)) was 5 (20.8), the “No. (%) of subjects: Musculoskeletal and connective tissue disorders (system organ class)” value (all TEAEs, All active (n = 24)) was 1 (4.2) and the “No. (%) of subjects: Myalgia” value (all TEAEs, All active (n = 24)) was 1 (4.2). The “No. (%) of subjects: Nervous system disorders (system organ class)” value (all TEAEs, All active (n = 24)) was 3 (12.5), the “No. (%) of subjects: Oropharyngeal pain” value (all TEAEs, All active (n = 24)) was 1 (4.2) and the “No. (%) of subjects: Psychiatric disorders (system organ class)” value (all TEAEs, All active (n = 24)) was 1 (4.2). For the same compound, the “No. (%) of subjects: Respiratory, thoracic, and mediastinal disorders (system organ class)” value (all TEAEs, All active (n = 24)) was 2 (8.3), the “No. (%) of subjects: Skin and subcutaneous tissue disorders (system organ class)” value (all TEAEs, All active (n = 24)) was 2 (8.3) and the “No. (%) of subjects: Subjects with TEAEs” value (all TEAEs, All active (n = 24)) was 20 (83.3). The “No. (%) of subjects: Throat irritation” value (all TEAEs, All active (n = 24)) was 1 (4.2), the “No. (%) of subjects: Upper respiratory tract infection” value (all TEAEs, All active (n = 24)) was 1 (4.2) and the “No. (%) of subjects: White blood cell count increased” value (all TEAEs, All active (n = 24)) was 0 (0.0). For the same compound, the “No. (%) of subjects: Alanine aminotransferase increased” value [2] was 1 (12.5), the “No. (%) of subjects: Amylase increased” value [2] was 1 (12.5) and the “No. (%) of subjects: Anxiety” value [2] was 1 (12.5). For the same compound, the “No. (%) of subjects: Arthropod bite” value [2] was 1 (12.5).

Source: article PMC7187627 (Antimicrobial Agents and Chemotherapy, 2019)
